Test results taken from patent publication US20120016010A1, “RNA Interference Mediated Inhibition of BTB and CNC Homology 1, Basic Leucine Zipper Transcription Factor 1 (BACH1) Gene Expression Using Short Interfering Nucleic Acid (siNA)” (Merck Sharp & Dohme Corp, priority 2009, published 2012).
[invAb] = inverted abasic unit; d = 2'-deoxy (DNA); m = 2'-O-methyl; r = 2'-OH (RNA); f = 2'-fluoro

Tests used:
[1] = tested on: Bach1 mRNA; test: Initial screen: Bach1 mRNA knock-down in human A549 cells (96-well transfection, quantitative RT-PCR); format: cell-based; settings: Bach1 mRNA, 10 nM siNA, human A549 cells, n = 2, mean ± S.D., normalized to GAPDH and non-targeting control, 24 hrs post-transfection
Protocol: (§1) All cells were obtained from ATCC (Manassas, Va.) unless otherwise indicated. Cells were grown and transfected under standard conditions, which are detailed below for each cell line.
(§2) Cells were plated in all wells of a tissue-culture treated, 96-well plate at a final count of 5000 cells/well in 100 μL of the appropriate culture media. The cells were cultured for 24 hours after plating at 37° C. in the presence of 5% CO2.
(§3) After 24 hours, complexes containing siNA and RNAiMax were created as follows: A solution of RNAiMax diluted 33-fold in OPTI-MEM was prepared. […] After incubation of RNAiMax/OPTI-MEM solution at room temperature for 5 min, an equal volume of the siNA solution and the RNAiMax solution were added together for each of the siNAs.
(§4) This solution was incubated at room temperature for 20 minutes. After incubation, 20 uL of the solution was added to each of the relevant wells. The final concentration of siNA in each well was 10 nM and the final volume of RNAiMax in each well was 0.3 ul. […]
(§5) Briefly, a 60 uL (1 plate) or 110 uL (2 plates) of the Lysis Solution with DNase I was dispensed into each well of the Lysis Buffer Plate (twin.tec full skirt plate). The lysis buffer and stop plates were stored at 4° C. until the cells were washed.
(§6) The plate was spun at 1100 rpm for 5 minutes. The culture medium was aspirated and discarded from the wells of the culture plate. The lysis was performed automatically using a BioMek FX instrument and method. After the Biomek method was completed, the lysis plate was incubated for 2 min at room temperature. The lysis plate can be stored for 2 hours at 4° C., or at −20° C. or −80° C. for two months.
(§7) Each well of the reverse transcription plate required 10 uL of 2× reverse transcriptase Buffer, 1 uL of 20× reverse transcription enzyme and 2 uL of nuclease-free water. The reverse transcription master mix was prepared by mixing 2× reverse transcription buffer, 20× reverse transcription enzyme mix, and nuclease-free water. 13 uL of the reverse transcription master mix was dispensed into each well of the reverse transcription plate (semi-skirted). A separate reverse transcription plate was prepared for each cell plate. The plate was loaded onto a Biomek NX or Biomek FX Dual −96 and the Biomek method was run. The program is programmed to automatically added 7 uL of lysate from the cell lysis procedure described above into each well of the reverse transcription plate. The plate is sealed and spun on a centrifuge (1000 rpm for 30 seconds) to settle the contents to the bottom of the reverse transcription plate. The plate is placed in a thermocycler at 37° C. for 60 min, 95° C. for 5 min, and 4° C. until the plate is removed from the thermocycler. Upon removal, if not used immediately, the plate was frozen at −20° C.
(§8) A series of probes and primers were used to detect the various mRNA transcripts of the genes of Bach1, HMOX-1, and GAPDH in mouse and human cell lines. The assays were performed on an ABI 7900 instrument, according to the manufacturer's instructions. […] The PCR reactions were carried out at 50° C. for 2 min, 95° C. for 20 min followed by 40 cycles at 95° C. for 15 secs and 60° C. for 1 min
(§9) Within each experiment, the […] was set in the exponential phase of the amplification curve, and based on the intersection point of the baselines with the amplification curve, a Ct value was assigned by the instrument.
(§10) The expression level of the gene of interest and % knock-down was calculated using Comparative Ct method:
(§11) ΔCt=ΔCt(Target siRNA)−ΔCt(NTC)
(§12) Relative expression level=2^−ΔΔCt
(§13) The non-targeting control siNA was, unless otherwise indicated, chosen as the value against which to calculate the % knock-down, because it is the most relevant control.

[2] = tested on: Bach1 mRNA; test: Initial screen: Bach1 mRNA knock-down in mouse NIH 3T3 cells (96-well transfection, quantitative RT-PCR); format: cell-based; settings: mouse NIH3T3 cells, n = 2, 24 hrs post-transfection, protocol 10 nM siNA
Protocol: as §1, §2, §3, §4, §5, §6, §7, §8, §9, §10, §11, §12, §13

Row | Substance | % KD [1] | % KD [2] [%]
1 | 29985-DC: Bach1 siNA duplex, target site 1312; sense B AGGcuucuGGAGuGAcAuu TTB (SEQ 119); antisense AAUGucAcuccAGAAGccuUU (SEQ 120) (sense AGGCUUCUGGAGUGACAUUTT; antisense AAUGUCACUCCAGAAGCCUUU; sense: sugars from the 5' end dddfffffddddfrdfdffdd, [invAb] at 5' end, 3' end, backbone not given here; antisense: sugars from the 5' end rrrmffmffffmmmmmfffmm, backbone not given here) | 18.6 ± 6.5% | 1.3 ± 4.5
2 | 29978-DC: Bach1 siNA duplex, target site 403 (mouse); sense B GGuuAAAGGAuuuGAAccu TTB (SEQ 105); antisense AGGuucAAAuccuuuAAccUU (SEQ 106) (sense GGUUAAAGGAUUUGAACCUTT; antisense AGGUUCAAAUCCUUUAACCUU; sense: DNA at AGT, 2'-fluoro at CU, [invAb] at 5' end, 3' end, backbone not given here; antisense: sugars from the 5' end rrrfffmmmffffffmmffmm, backbone not given here) | 14.4 ± 0^ % | 3.3 ± 3.8
3 | 29970-DC: Bach1 siNA duplex, target site 1472 (mouse); sense B GAGuGucccuGGuuGGGuA TTB (SEQ 89); antisense UACccAAccAGGGAcAcucUU (SEQ 90) (sense GAGUGUCCCUGGUUGGGUATT; antisense UACCCAACCAGGGACACUCUU; sense: DNA at AGT, 2'-fluoro at CU, [invAb] at 5' end, 3' end, backbone not given here; antisense: sugars from the 5' end rrrffmmffmmmmmfmfffmm, backbone not given here) | 46.8 ± 5.1% | 69.4 ± 4.8
4 | 29949-DC: Bach1 siNA duplex, target site 664; sense B GuGuAAAcuccGcAGGuAu TTB (SEQ 47); antisense AUAccuGcGGAGuuuAcAcUU (SEQ 48) (sense GUGUAAACUCCGCAGGUAUTT; antisense AUACCUGCGGAGUUUACACUU; sense: DNA at AGT, 2'-fluoro at CU, [invAb] at 5' end, 3' end, backbone not given here; antisense: sugars from the 5' end rrrfffmfmmmmfffmfmfmm, backbone not given here) | 25 ± 1.4% | −7.1 ± 5.2
5 | 29973-DC: Bach1 siNA duplex, target site 1780 (mouse); sense B cucAcGAAAuGAuuuccAA TTB (SEQ 95); antisense UUGGAAAucAuuucGuGAGUU (SEQ 96) (sense CUCACGAAAUGAUUUCCAATT; antisense UUGGAAAUCAUUUCGUGAGUU; sense: DNA at AGT, 2'-fluoro at CU, [invAb] at 5' end, 3' end, backbone not given here; antisense: sugars from the 5' end rrrmmmmffmffffmfmmmmm, backbone not given here) | −8 ± 11.1% | 76.4 ± 5.3
6 | 29977-DC: Bach1 siNA duplex, target site 1640 (mouse); sense B GAGccuuGcccGuAuGcuu TTB (SEQ 103); antisense AAGcAuAcGGGcAAGGcucUU (SEQ 104) (sense GAGCCUUGCCCGUAUGCUUTT; antisense AAGCAUACGGGCAAGGCUCUU; sense: DNA at AGT, 2'-fluoro at CU, [invAb] at 5' end, 3' end, backbone not given here; antisense: sugars from the 5' end rrrfmfmfmmmfmmmmfffmm, backbone not given here) | 18.9 ± 0.3% | 53 ± 2.9
7 | 29971-DC: Bach1 siNA duplex, target site 2488 (mouse); sense B GuAGcuuucuGuuGAGGGA TTB (SEQ 91); antisense UCCcucAAcAGAAAGcuAcUU (SEQ 92) (sense GUAGCUUUCUGUUGAGGGATT; antisense UCCCUCAACAGAAAGCUACUU; sense: sugars from the 5' end rfddffffffdffdddddddd, [invAb] at 5' end, 3' end, backbone not given here; antisense: sugars from the 5' end rrrfffmmfmmmmmmffmfmm, backbone not given here) | 23.9 ± 3.8% | 75 ± 4.7
8 | 29960-DC: Bach1 siNA duplex, target site 1377; sense B ccAAAGAuGGcucAGAAcA TTB (SEQ 69); antisense UGUucuGAGccAucuuuGGUU (SEQ 70) (sense CCAAAGAUGGCUCAGAACATT; antisense UGUUCUGAGCCAUCUUUGGUU; sense: DNA at AGT, 2'-fluoro at CU, [invAb] at 5' end, 3' end, backbone not given here; antisense: sugars from the 5' end rrrfffmmmffmfffffmmmm, backbone not given here) | 34 ± 3% | 5.9 ± 6.4
9 | 29959-DC: Bach1 siNA duplex, target site 1415; sense B GAGuGuccGuGGuuAGGuA TTB (SEQ 67); antisense UACcuAAccAcGGAcAcuCUU (SEQ 68) (sense GAGUGUCCGUGGUUAGGUATT; antisense UACCUAACCACGGACACUCUU; sense: DNA at AGT, 2'-fluoro at CU, [invAb] at 5' end, 3' end, backbone not given here; antisense: chemistry not given here; in key) | 68 ± 14.9% | −9.9 ± 3.8
10 | 29987-DC: Bach1 siNA duplex, target site 1313; sense B GGcuucuGGAGuGAcAuuu TTB (SEQ 123); antisense AAAuGucAcuccAGAAGccUU (SEQ 124) (sense GGCUUCUGGAGUGACAUUUTT; antisense AAAUGUCACUCCAGAAGCCUU; sense: DNA at AGT, 2'-fluoro at CU, [invAb] at 5' end, 3' end, backbone not given here; antisense: sugars from the 5' end rrrfmffmffffmmmmmffmm, backbone not given here) | 16 ± 0.2% | −16.1 ± 11.6
11 | 29958-DC: Bach1 siNA duplex, target site 851; sense B GucAAAGAcAuucAuGcuu TTB (SEQ 65); antisense AAGcAuGAAuGucuuuGAcUU (SEQ 66) (sense GUCAAAGACAUUCAUGCUUTT; antisense AAGCAUGAAUGUCUUUGACUU; sense: DNA at AGT, 2'-fluoro at CU, [invAb] at 5' end, 3' end, backbone not given here; antisense: sugars from the 5' end rrrfmfmmmfmfffffmmfmm, backbone not given here) | 75.7 ± 8.6% | −50.4 ± 6.8
12 | 29983-DC: Bach1 siNA duplex, target site 363; sense B GAuuuGAAccuuuAAuucA TTB (SEQ 115); antisense UGAAuuAAAGGuucAAAucUU (SEQ 116) (sense GAUUUGAACCUUUAAUUCATT; antisense UGAAUUAAAGGUUCAAAUCUU; sense: DNA at AGT, 2'-fluoro at CU, [invAb] at 5' end, 3' end, backbone not given here; antisense: sugars from the 5' end rrrmffmmmmmfffmmmffmm, backbone not given here) | 74.7 ± 1.8% | 49 ± 2
